From patent US20140228349A1, “5,7-SUBSTITUTED-IMIDAZO[1,2-C]PYRIMIDINES” (Array BioPharma Inc., priority 2011, published 2014)

Key:
Assay type in all cases: biochemical
JAK3 = target: T1, JAK3 (Homo sapiens, UniProt P52333); assay: JAK3 Inhibition Assay (Omnia kinase fluorescence peptide substrate); conditions: averaged IC50 ranges; 10 μM (Km app) or 1 mM ATP, 2.5 nM JAK3
T1 construct: purchased Invitrogen Corporation, Carlsbad, Calif; IVGN PV4080
T1 sequence (P52333 1-1124): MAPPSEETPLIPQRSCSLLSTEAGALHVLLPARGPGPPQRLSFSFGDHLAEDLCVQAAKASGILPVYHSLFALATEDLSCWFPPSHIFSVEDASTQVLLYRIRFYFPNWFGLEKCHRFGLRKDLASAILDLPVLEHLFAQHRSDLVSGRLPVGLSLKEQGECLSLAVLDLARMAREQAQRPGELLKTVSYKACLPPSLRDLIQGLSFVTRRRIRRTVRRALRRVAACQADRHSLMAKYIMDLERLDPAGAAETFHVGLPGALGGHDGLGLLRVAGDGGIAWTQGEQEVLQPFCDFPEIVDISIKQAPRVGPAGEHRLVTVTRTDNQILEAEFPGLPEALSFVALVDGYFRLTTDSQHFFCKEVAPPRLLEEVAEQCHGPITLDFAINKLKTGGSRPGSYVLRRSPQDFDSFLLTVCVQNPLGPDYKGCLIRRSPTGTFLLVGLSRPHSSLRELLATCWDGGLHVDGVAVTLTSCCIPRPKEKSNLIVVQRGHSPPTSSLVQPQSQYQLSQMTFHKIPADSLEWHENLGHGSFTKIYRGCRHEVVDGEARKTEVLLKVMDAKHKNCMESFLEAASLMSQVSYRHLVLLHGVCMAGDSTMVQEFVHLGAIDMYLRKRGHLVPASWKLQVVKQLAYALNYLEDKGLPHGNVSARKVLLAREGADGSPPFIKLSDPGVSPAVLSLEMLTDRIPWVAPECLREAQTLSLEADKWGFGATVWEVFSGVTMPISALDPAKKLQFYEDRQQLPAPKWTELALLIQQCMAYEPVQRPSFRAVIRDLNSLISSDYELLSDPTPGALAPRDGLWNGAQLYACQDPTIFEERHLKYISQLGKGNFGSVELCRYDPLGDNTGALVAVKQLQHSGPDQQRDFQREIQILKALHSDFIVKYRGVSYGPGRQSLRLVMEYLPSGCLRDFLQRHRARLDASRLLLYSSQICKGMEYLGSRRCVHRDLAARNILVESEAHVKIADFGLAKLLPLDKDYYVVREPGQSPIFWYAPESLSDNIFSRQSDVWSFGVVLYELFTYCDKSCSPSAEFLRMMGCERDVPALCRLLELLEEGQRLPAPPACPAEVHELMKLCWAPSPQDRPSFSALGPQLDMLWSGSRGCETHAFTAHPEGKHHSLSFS
From the text: (§1) The assays described in Examples A, B, C and D for the determination of Tyk2, JAK1, JAK2 and JAK3 kinase activity, respectively, utilized the Omnia® Kinase fluorescence peptide substrate-based technology (Invitrogen). The specific components of the assay mixture are described in Examples A, B, C and D. In these assays, Mg^2+ is chelated upon phosphorylation of the Omnia peptide by the kinase to form a bridge between the chelation-enhanced fluorophore Sox and the phosphate, resulting in an increase in fluorescence emission at 485 nm when excited at […]. The reactions were therefore read at excitation 360 nm and emission was measured at 485 nm every 50 seconds for 45 minutes using a PerkinElmer EnVision Multilabel Plate Reader.
(§2) The final buffer conditions for Tyk2, JAK1, JAK2, and JAK3 assays were as follows: 25 mM HEPES, pH 7.4, 10 mM MgCl2, 0.01% Triton X-100 and 1 mM DTT.
(§3) Compounds were prepared at 50× the final concentration in DMSO by conducting 3-fold serial dilutions from a 500-μM intermediate dilution to give a 10-point dosing curve having a high dose of 10 μM. Two-μL aliquots of these were transferred to a fresh plate for a ten-fold intermediate dilution with assay buffer. Five-μL aliquots of the diluted compounds were then transferred to 20-μL of assay mixtures described in Examples A, B, C and D for a final concentration of DMSO of 2%. A standard or reference compound was typically included on each assay plate to validate that plate. For each plate, percent of control (POC) values were calculated for each well according to the following equation: […]
(§4) IC50's were estimated from the POC's using a standard 4-parameter logistic model:
(§5) The IC50 is defined as the concentration of inhibitor at which the POC equals 50 for the fitted curve.
(§6) Compounds of Formula I were screened for their ability to inhibit JAK3 using the general enzyme inhibition assay method, in which the assay mixture contained 10 μM (Km app) or 1 mM ATP, 10 μM Omnia® Y7 peptide (Catalog #IVGN KNZ3071C, Invitrogen Corporation, Carlsbad, Calif.) and 2.5 nM JAK3 in a total volume of 20 μL. JAK3 was purchased from Invitrogen Corporation, Carlsbad, Calif. (catalog #IVGN PV4080).

JAK2 = target: T2, JAK2 (Homo sapiens, UniProt O60674); assay: JAK2 Inhibition Assay (Omnia kinase fluorescence peptide substrate); conditions: averaged IC50 ranges; 25 μM (Km app) or 1 mM ATP, 5 nM JAK2
T2 construct: purchased Invitrogen Corporation, Carlsbad, Calif; IVGN PV4288
From the text: as §1, §2, §3, §4, §5
as §6, with “inhibit JAK2” for “inhibit JAK3”, “contained 25” for “contained 10”, “and 5” for “and 2.5”, “nM JAK2” for “nM JAK3”, “μL. JAK2” for “μL. JAK3”, “#IVGN PV4288).” for “#IVGN PV4080).”

Human Tyk2 kinase domain = target: T3, Human Tyk2 kinase domain (Homo sapiens, UniProt P29597); assay: Tyk2 Inhibition Assay (Omnia kinase fluorescence peptide substrate); conditions: averaged IC50 ranges; 10 μM (Km app) or 1 mM ATP, 2 nM Tyk2
T3 construct: comprising amino acids 886 to 1187; His10 (10 histidine residues) (C, cleaved yes); made in house
T3 sequence (P29597 886-1187): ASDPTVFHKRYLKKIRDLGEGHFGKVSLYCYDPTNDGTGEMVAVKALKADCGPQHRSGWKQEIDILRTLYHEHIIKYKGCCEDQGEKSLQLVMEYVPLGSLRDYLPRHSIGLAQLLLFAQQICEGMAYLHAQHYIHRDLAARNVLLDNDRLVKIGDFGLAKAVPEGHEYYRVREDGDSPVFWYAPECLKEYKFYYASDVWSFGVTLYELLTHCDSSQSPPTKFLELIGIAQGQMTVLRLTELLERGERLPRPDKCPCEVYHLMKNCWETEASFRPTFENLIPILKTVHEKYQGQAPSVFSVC
From the text: as §1, §2, §3, §4, §5
Compounds of Formula I were screened for their ability to inhibit Tyk2 using the general enzyme inhibition assay method, in which the assay mixture contained 10 μM (Km app) or 1 mM ATP, 8 μM Omnia® Y12 peptide (Catalog #IVGN KPZ3121C; Invitrogen Corporation, Carlsbad, Calif.) and 2 nM Tyk2 in a total volume of 20 μL. Human Tyk2 kinase domain, comprising amino acids 886 to 1187 with 10 additional histidine residues (histidine tag) on the carboxy terminus, was expressed and purified from bacculovirus in-house at Array BioPharma Inc. (Boulder, Colo.). The histidine tag was cleaved after purification using standard conditions.

JAK1 = target: T4, JAK1 (Homo sapiens, UniProt P23458); assay: JAK1 Inhibition Assay (Omnia kinase fluorescence peptide substrate); conditions: averaged IC50 ranges; 40 μM (Km app) or 1 mM ATP, 15 nM JAK1
T4 construct: purchased Invitrogen Corporation, Carlsbad, Calif; IVGN PV4775
From the text: as §1, §2, §3, §4, §5
Compounds of Formula I were screened for their ability to inhibit JAK1 using the general enzyme inhibition assay method, in which the assay mixture contained 40 μM (Km app) or 1 mM ATP, 8 μM Omnia® Y12 peptide (Catalog #IVGN KPZ3121C; Invitrogen Corporation, Carlsbad, Calif.) and 15 nM JAK1 in a total volume of 20 μL. JAK1 was purchased from Invitrogen Corporation, Carlsbad, Calif. (catalog #IVGN PV4775).

T4 sequence (P23458 whole entry): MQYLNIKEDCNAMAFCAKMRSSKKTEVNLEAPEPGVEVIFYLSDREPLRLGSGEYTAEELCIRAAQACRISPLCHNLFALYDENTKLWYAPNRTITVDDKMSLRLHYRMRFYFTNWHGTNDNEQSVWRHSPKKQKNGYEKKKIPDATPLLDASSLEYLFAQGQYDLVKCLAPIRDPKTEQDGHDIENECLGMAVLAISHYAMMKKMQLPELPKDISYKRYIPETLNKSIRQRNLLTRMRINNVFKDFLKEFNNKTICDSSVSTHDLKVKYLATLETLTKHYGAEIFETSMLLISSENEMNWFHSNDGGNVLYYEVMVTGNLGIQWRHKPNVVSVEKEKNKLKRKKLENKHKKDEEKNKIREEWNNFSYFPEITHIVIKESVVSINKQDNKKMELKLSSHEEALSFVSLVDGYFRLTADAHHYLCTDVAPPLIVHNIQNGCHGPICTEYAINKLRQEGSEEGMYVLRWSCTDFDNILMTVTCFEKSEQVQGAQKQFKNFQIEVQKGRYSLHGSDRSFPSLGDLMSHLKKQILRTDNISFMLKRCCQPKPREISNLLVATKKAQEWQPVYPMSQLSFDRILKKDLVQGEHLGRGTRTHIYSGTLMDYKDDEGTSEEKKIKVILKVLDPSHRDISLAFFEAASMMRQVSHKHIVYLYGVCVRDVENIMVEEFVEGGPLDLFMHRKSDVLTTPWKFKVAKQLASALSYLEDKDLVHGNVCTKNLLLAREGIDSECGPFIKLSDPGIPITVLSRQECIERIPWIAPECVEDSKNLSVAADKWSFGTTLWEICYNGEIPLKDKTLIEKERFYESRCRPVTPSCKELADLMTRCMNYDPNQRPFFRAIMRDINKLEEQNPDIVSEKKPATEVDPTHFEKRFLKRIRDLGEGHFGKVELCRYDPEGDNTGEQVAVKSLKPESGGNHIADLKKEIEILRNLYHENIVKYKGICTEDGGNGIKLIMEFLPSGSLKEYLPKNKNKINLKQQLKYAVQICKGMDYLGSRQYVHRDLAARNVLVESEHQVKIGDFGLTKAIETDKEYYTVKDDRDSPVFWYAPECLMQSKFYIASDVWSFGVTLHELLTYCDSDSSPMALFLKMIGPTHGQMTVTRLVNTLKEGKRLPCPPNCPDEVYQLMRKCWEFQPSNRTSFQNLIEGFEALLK
T2 sequence (O60674 whole entry): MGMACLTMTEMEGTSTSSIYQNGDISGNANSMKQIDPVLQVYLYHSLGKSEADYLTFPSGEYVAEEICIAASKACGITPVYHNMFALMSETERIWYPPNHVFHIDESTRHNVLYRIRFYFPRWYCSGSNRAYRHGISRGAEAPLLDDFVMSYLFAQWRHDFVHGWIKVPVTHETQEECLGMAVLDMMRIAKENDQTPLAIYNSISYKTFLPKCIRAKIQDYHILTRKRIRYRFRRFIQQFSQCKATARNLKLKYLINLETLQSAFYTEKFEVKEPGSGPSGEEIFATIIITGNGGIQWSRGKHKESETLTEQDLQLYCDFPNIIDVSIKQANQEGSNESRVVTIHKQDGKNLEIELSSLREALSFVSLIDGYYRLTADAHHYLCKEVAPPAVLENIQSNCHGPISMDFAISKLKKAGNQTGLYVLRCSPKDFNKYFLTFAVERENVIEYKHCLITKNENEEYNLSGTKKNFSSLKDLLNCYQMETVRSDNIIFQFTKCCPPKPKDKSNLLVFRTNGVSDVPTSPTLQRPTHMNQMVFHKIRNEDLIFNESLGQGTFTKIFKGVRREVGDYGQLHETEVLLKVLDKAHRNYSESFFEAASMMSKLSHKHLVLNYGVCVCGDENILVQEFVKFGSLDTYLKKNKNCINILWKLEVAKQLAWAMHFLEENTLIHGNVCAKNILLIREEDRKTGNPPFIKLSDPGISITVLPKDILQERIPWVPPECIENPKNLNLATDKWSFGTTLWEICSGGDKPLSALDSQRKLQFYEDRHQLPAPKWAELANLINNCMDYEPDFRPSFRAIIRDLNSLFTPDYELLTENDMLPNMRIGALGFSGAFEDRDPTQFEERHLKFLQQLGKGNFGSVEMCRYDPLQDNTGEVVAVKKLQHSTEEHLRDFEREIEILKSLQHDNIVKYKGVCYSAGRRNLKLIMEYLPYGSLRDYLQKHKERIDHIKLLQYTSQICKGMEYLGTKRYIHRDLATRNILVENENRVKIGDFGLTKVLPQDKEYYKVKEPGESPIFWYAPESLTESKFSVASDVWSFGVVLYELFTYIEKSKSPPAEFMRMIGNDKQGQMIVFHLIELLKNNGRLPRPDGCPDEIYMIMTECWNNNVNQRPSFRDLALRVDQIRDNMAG

Row | IC50 (JAK3) [nM] | IC50 (JAK2) [nM] | IC50 (Human Tyk2 kinase domain) [nM] | IC50 (JAK1) [nM] | Structure (SMILES)
1 | > 1000 | > 1000 | 100 to 1000 | > 1000 | CCOC(=O)CC1(n2cc(-c3nc(-c4cnn(C)c4)cc4nccn34)cn2)CN(S(=O)(=O)C(F)(F)F)C1 [Example 1, ethyl 2-(3-(4-(7-(1-methyl-1H-pyrazol-4-yl)imidazo[1,2-c]pyrimidin-5-yl)-1H-pyrazol-1-yl)-1-(trifluoromethylsulfonyl)azetidin-3-yl)acetate]
2 | > 1000 | > 1000 | 100 to 1000 | > 1000 | Cn1cc(-c2cc3nccn3c(-c3cnn(C4(CC(=O)O)CN(S(=O)(=O)C(F)(F)F)C4)c3)n2)cn1 [Example 2, 2-(3-(4-(7-(1-methyl-1H-pyrazol-4-yl)imidazo[1,2-c]pyrimidin-5-yl)-1H-pyrazol-1-yl)-1-((trifluoromethyl)sulfonyl)azetidin-3-yl)acetic acid]
3 | 100 to 1000 | 100 to 1000 | 10 to 100 | 100 to 1000 | Cn1cc(-c2cc3nccn3c(-c3cnn(C4(CCO)CN(S(=O)(=O)C(F)(F)F)C4)c3)n2)cn1 [Example 3, 2-(3-(4-(7-(1-methyl-1H-pyrazol-4-yl)imidazo[1,2-c]pyrimidin-5-yl)-1H-pyrazol-1-yl)-1-((trifluoromethyl)sulfonyl)azetidin-3-yl)ethanol]
4 | > 1000 | > 1000 | 100 to 1000 | > 1000 | COCCC1(n2cc(-c3nc(-c4cnn(C)c4)cc4nccn34)cn2)CN(S(=O)(=O)C(F)(F)F)C1 [Example 4, 5-(1-(3-(2-methoxyethyl)-1-((trifluoromethyl)sulfonyl)azetidin-3-yl)-1H-pyrazol-4-yl)-7-(1-methyl-1H-pyrazol-4-yl)imidazo[1,2-c]pyrimidine]
5 | > 1000 | 100 to 1000 | 100 to 1000 | > 1000 | CCn1cc(-c2nc(-c3cnn(C)c3)cc3nccn23)cn1 [Example 5, 5-(1-ethyl-1H-pyrazol-4-yl)-7-(1-methyl-1H-pyrazol-4-yl)imidazo[1,2-c]pyrimidine]
6 | > 1000 | > 1000 | 100 to 1000 | > 1000 | CCOC(=O)CC(C1CC1)n1cc(-c2nc(-c3cnn(C)c3)cc3nccn23)cn1 (centres unmarked) [Example 12, Ethyl 3-cyclopropyl-3-(4-(7-(1-methyl-1H-pyrazol-4-yl)imidazo[1,2-c]pyrimidin-5-yl)-1H-pyrazol-1-yl)propanoate]

The remaining lines, values behind:

Row | Structure (SMILES) | IC50 (JAK3) [nM] | IC50 (JAK2) [nM] | IC50 (Human Tyk2 kinase domain) [nM] | IC50 (JAK1) [nM]
7 | Cn1cc(-c2cc3nccn3c(-c3cnn(C(CO)C4CC4)c3)n2)cn1 (centres unmarked) [Example 6, 2-cyclopropyl-2-(4-(7-(1-methyl-1H-pyrazol-4-yl)imidazo[1,2-c]pyrimidin-5-yl)-1H-pyrazol-1-yl)ethanol] | > 1000 | > 1000 | 100 to 1000 | > 1000
8 | CC#CCCn1cc(-c2nc(-c3cnn(C)c3)cc3nccn23)cn1 [Example 7, 7-(1-Methyl-1H-pyrazol-4-yl)-5-(1-(pent-3-yn-1-yl)-1H-pyrazol-4-yl)imidazo[1,2-c]pyrimidine] | > 1000 | > 1000 | 100 to 1000 | > 1000
9 | C#CCCn1cc(-c2nc(-c3cnn(C)c3)cc3nccn23)cn1 [Example 8, 5-(1-(But-3-yn-1-yl)-1H-pyrazol-4-yl)-7-(1-methyl-1H-pyrazol-4-yl)imidazo[1,2-c]pyrimidine] | 100 to 1000 | 10 to 100 | 10 to 100 | 100 to 1000
10 | Cn1cc(-c2cc3nccn3c(-c3cnn(C(C4CC4)C4CC4)c3)n2)cn1 [Example 9, 5-(1-(Dicyclopropylmethyl)-1H-pyrazol-4-yl)-7-(1-methyl-1H-pyrazol-4-yl)imidazo[1,2-c]pyrimidine] | 100 to 1000 | 100 to 1000 | 10 to 100 | > 1000
11 | C=CCC(CC1CC1)n1cc(-c2nc(-c3cnn(C)c3)cc3nccn23)cn1 (centres unmarked) [Example 10, 5-(1-(1-Cyclopropylpent-4-en-2-yl)-1H-pyrazol-4-yl)-7-(1-methyl-1H-pyrazol-4-yl)imidazo[1,2-c]pyrimidine] | 100 to 1000 | 10 to 100 | < 10 | 100 to 1000
12 | Cn1cc(-c2cc3nccn3c(-c3cnn(C(CC4CC4)CC4CC4)c3)n2)cn1 [Example 11, 5-(1-(1,3-Dicyclopropylpropan-2-yl)-1H-pyrazol-4-yl)-7-(1-methyl-1H-pyrazol-4-yl)imidazo[1,2-c]pyrimidine] | 100 to 1000 | 10 to 100 | 10 to 100 | 100 to 1000
13 | Cn1cc(-c2cc3nccn3c(-c3ccn([C@H](CCF)[C@H]4CC4(F)F)c3)n2)cn1 [Example 29, 5-(1-((R)-1-((R)-2,2-difluorocyclopropyl)-3-fluoropropyl)-1H-pyrrol-3-yl)-7-(1-methyl-1H-pyrazol-4-yl)imidazo[1,2-c]pyrimidine] | – | 10 to 100 | < 10 | –
